Entries after “also recorded” stand apart in the source; their conditions may differ. Read-outs that look alike come from different tables or passages of the source. Non-standard residues stand in square brackets, D forms with d. Residues, ends and D or L forms follow the SMILES beside them. *: point of attachment. GlcA(β-D,1-O-dodecyl) = CCCCCCCCCCCCO[C@@H]1O[C@H](C(=O)*)[C@@H](O)[C@H](O)[C@H]1O; GlcA(β1-O-octyl) = CCCCCCCCO[C@@H]1O[C@H](C(=O)*)[C@@H](O)[C@H](O)[C@H]1O; Phe(2,4,6-Me3) = Cc1cc(C)c(C[C@H](N)C(=O)O)c(C)c1; Dmt = Cc1cc(O)cc(C)c1C[C@H](N)C(=O)O; hArg = N=C(N)NCCCC[C@H](N)C(=O)O; Nle = CCCC[C@H](N)C(=O)O; Ac5c = NC1(C(=O)O)CCCC1; Aib = CC(C)(N)C(=O)O
How the values were obtained:
PTH receptor (PTHR1) = target: T1, PTH receptor (PTHR1) (Homo sapiens, UniProt Q03431); assay: PTH1 cellular assay, cAMP, agonist mode (SaOS2 cells, Cerep); assay type: cell-based
T1 construct: Cerep SA
T1 sequence (Q03431 27-593): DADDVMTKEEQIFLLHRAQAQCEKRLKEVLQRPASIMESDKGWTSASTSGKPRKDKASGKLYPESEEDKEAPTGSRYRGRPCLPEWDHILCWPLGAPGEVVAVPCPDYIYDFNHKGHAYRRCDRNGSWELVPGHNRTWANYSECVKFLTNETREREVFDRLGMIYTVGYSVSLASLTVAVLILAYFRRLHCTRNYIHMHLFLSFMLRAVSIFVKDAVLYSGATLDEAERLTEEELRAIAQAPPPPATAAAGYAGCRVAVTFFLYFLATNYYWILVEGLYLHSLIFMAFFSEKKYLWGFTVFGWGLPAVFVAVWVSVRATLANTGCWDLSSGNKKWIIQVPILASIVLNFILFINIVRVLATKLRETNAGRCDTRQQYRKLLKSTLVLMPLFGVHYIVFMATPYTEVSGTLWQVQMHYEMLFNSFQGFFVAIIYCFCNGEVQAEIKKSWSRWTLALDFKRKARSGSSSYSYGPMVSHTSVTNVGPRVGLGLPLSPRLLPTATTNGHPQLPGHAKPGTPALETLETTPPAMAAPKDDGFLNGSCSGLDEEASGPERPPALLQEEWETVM
Protocol: Compounds were weighed precisely in an amount of approximately 1 mg and assayed in standard cellular assays (cerep SA). The readout is the amount of cAMP generated in the cells treated with the test compounds, in either agonist or antagonist mode.
Compounds were dissolved in water and diluted in assay buffer containing 1% bovine serum albumin.

blood PO4 levels in rats = assay: blood phosphate levels in rats after single s.c. injection; assay type: in vivo, rat
Text: Following the method of Frolik, C.

blood Ca levels in rats = conditions: sc, 320 micrograms per kg (G4), at 5 hrs
Protocol: Each animal in a group was treated with a single sc injection of either vehicle or test agent.
Blood samples were collected via retro-orbital vein at 0.5, 1, 2, 4, and 5 hrs. post-injection and blood samples were stored on ice prior to centrifugation and testing for blood PO4 and Ca levels.

mu opioid receptor [1] = target: T2, mu opioid receptor (Homo sapiens, UniProt P35372); assay: mu opioid receptor cellular assay (MOP), agonist mode, cAMP readout (Cerep); assay type: cell-based
T2 construct: Cerep
Protocol: (§1) Compounds were weighed precisely in an amount of approximately 2 mg and assayed in standard cellular assays by the contract research organization Cerep, Inc. (Pullman, Wash.) as executed at their subsidiary, Cerep SA (Le Bois l'Eveque, France). The readout is the amount of cAMP generated in the cells treated with the test compounds, in either agonist or antagonist mode. The assays used were the mu opioid receptor cellular assay (MOP in agonist and antagonist mode), the delta2 opioid receptor cellular assay (DOP in agonist and antagonist mode) and the kappa opioid receptor cellular assay (KOP in agonist and antagonist mode). The assays used are described in Wang, J. B., et al. (1994) FEBS Lett 338: 217-222, Law, P. Y. and Loh, H. H. (1993) Mol Pharmacol 43: 684-693, and Avidor-Reiss, T., et al. (1995) FEBS Lett 361: 70-74. The stimulant for the cells in the DOR antagonist assay was 3×10E-8M DPDPE, a well-accepted DOR literature standard.

mu opioid receptor [2] = target: T2, mu opioid receptor; assay: mu opioid receptor cellular assay (MOP), antagonist mode, cAMP readout (Cerep); assay type: cell-based
Protocol: as §1

db/db mice = assay: db/db mice, blood glucose after s.c. dosing; assay type: in vivo, mouse; conditions: db/db mice, s.c., 250 nmole/kg
Protocol: The 60 female db/db B6BKS (D) Leprdb/J (strain 000697) mice for this study were approximately 8 to 9 weeks old at arrival (Jackson Laboratory, Bar Harbor, Me.). […] One group of 8 female mice served as the vehicle control and received the vehicle, 0.2% BSA in saline, pH 7.4. One additional group of 8 female mice received the positive control article, liraglutide, at a dose level of 50 nmoles/kg. The test articles, vehicle, and positive control article were administered on Day 1, at approximately 0, 7, and 24 hours during the study via subcutaneous injection at a dose volume of 6 mL/kg.
Clinical observations were conducted at receipt, prior to randomization, and daily from Days 1 to 5. Body weights were measured and recorded at receipt, prior to randomization, and daily from Days 1 to 5. Food consumption was measured and recorded daily from Days 1 to 5. Blood samples for glucose analysis were collected pretest (Day −3) and at 0, 1, 2, 4, 8, 10, 24, 48, 72, and 96 hours following the first dose on Day 1. At study termination all animals were euthanized and the carcasses were discarded without further evaluation.

[3] = plasma protease stability, incubation in human plasma at 37 degC, LC-MS; assay type: in vitro ADME; conditions: over 8 hrs
[4] = in the body; by s.c. injection; cited from earlier work
[5] = in vivo; cited from earlier work

T2 sequence (P35372 whole entry): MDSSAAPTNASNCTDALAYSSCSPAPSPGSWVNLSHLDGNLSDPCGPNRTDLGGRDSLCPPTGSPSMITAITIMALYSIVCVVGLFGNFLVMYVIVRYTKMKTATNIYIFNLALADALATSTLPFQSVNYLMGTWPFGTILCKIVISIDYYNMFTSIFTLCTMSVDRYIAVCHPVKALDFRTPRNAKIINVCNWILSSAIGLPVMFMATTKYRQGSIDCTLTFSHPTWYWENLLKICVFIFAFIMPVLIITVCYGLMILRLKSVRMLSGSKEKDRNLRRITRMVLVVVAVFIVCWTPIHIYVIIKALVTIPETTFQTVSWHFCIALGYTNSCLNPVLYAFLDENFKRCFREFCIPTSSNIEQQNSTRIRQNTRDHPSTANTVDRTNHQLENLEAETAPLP

For `CCCCCCCCCCCCO[C@@H]1O[C@H](C(=O)NCCCC[C@H](NC(=O)C(C)(C)NC(=O)[C@H](CCC(N)=O)NC(=O)[C@@H](NC(=O)[C@H](Cc2c[nH]c3ccccc23)NC(=O)[C@H](CCCNC(=N)N)NC(=O)[C@H](C)NC(=O)[C@H](CCCCNC(=N)N)NC(=O)[C@H](CCC(N)=O)NC(=O)[C@H](Cc2c[nH]cn2)NC(=O)[C@H](CCCC)NC(=O)[C@H](CC(C)C)NC(=O)[C@H](CCC(N)=O)NC(=O)[C@@H](NC(=O)[C@H](CCC(=O)O)NC(=O)C(C)(C)NC(=O)[C@@H](NC(=O)C2(N)CCCC2)C(C)C)[C@@H](C)CC)[C@@H](C)CC)C(=O)NC(C)(C)C(N)=O)[C@@H](O)[C@H](O)[C@H]1O` [EU-232, Ac5c1-Val2-Aib3-Glu4-Ile5-Gln6-Leu7-Nle8-His9-Gln10-hArg11-Ala12-Arg13-Trp14-Ile15-Gln16-Aib17-Lys(N-epsilon-1′-dodecylbeta-D-glucuronyl)18-Aib19-NH2] (H-[Ac5c]V[Aib]EIQL[Nle]HQ[hArg]ARWIQ[Aib]K(GlcA(β-D,1-O-dodecyl))[Aib]-NH2), the Characterization (PTH receptor (PTHR1)) was “super-agonistic response; also recorded: super-agonistic activity; also recorded: agonist”, the EC50 (PTH receptor (PTHR1)) was 2.4 nM and the Emax (PTH receptor (PTHR1); SAOS-2, read-out: Maximal response (% PTHrP)) was 145%. The Emax (PTH receptor (PTHR1); SAOS-2, read-out: maximal response) was 125%, the “time point of maximal statistically significant effect on blood phosphate” value (blood PO4 levels in rats; sc, last time point in the assay) was 5 h and the “blood PO4 levels” value (blood PO4 levels in rats; single sc injection, 80 mcg groups) was “transient but not statistically significant decrease”. For the same molecule, the “maximal decrease in blood PO4 levels from time 0 hr. level” value (blood PO4 levels in rats; single sc injection, 5 hr. time point, dose not named in the sentence (320 group)) was 25-35% and the blood calcium levels (blood Ca levels in rats) was “no elevation”.

In the case of `CCCCCCCCO[C@@H]1O[C@H](C(=O)NCCCC[C@H](NC(=O)[C@H](Cc2c(C)cc(C)cc2C)NC(=O)[C@@H]2CCCN2C(=O)[C@@H](N)Cc2c(C)cc(O)cc2C)C(N)=O)[C@@H](O)[C@H](O)[C@H]1O` [EU-A102, 2′,6′-dimethyl-L-tyrosyl-prolyl-2′,4′,6′-trimethyl-L-phenylalanyl-Nε-(1′-octyl β-D-glucuronyl)-L-lysine amide] (H-[Dmt]P[Phe(2,4,6-Me3)]K(GlcA(β1-O-octyl))-NH2), the “Characterization (MOP)” value (mu opioid receptor [1]) is reported as “partial agonist”, the EC50 (mu opioid receptor [1]) is reported as 100 nM and the IC50 (mu opioid receptor [2]) is reported as 100 nM.

With `CCCCCCCCCCCCO[C@@H]1O[C@H](C(=O)NCCCC[C@H](NC(=O)[C@H](Cc2c(C)cc(C)cc2C)NC(=O)[C@@H]2CCCN2C(=O)[C@@H](N)Cc2c(C)cc(O)cc2C)C(N)=O)[C@@H](O)[C@H](O)[C@H]1O` [EU-A103, Dmt-Pro-Tmp-Lys(C12-glucuronyl)-NH2] (H-[Dmt]P[Phe(2,4,6-Me3)]K(GlcA(β-D,1-O-dodecyl))-NH2) the “Characterization (MOP)” value (mu opioid receptor [1]) was “pure antagonist” and the IC50 (mu opioid receptor [2]) was 86 nM.

With `CCCCCCCCCCCCO[C@@H]1O[C@H](C(=O)NCCCC[C@H](NC(=O)[C@@H](NC(=O)[C@H](Cc2ccccc2)NC(=O)[C@H](CCC(=O)O)NC(=O)[C@@H]2CCCCNC(=O)CC[C@H](NC(=O)[C@H](CC(=O)O)NC(=O)[C@H](CC(C)C)NC(=O)[C@H](Cc3ccc(O)cc3)NC(=O)[C@H](CCCCN)NC(=O)[C@H](CO)NC(=O)[C@H](Cc3ccc(O)cc3)NC(=O)[C@H](CC(=O)O)NC(=O)[C@H](CO)NC(=O)[C@@H](NC(=O)[C@H](Cc3ccccc3)NC(=O)[C@@H](NC(=O)CNC(=O)[C@H](CCC(N)=O)NC(=O)C(C)(C)NC(=O)[C@@H](N)Cc3c[nH]cn3)[C@@H](C)O)[C@@H](C)O)C(=O)N[C@@H](CCC(N)=O)C(=O)N[C@@H](C)C(=O)N[C@@H](C)C(=O)N2)[C@@H](C)CC)C(=O)N[C@@H](Cc2c[nH]c3ccccc23)C(=O)N[C@@H](CC(C)C)C(=O)N[C@@H](CC(C)C)C(=O)N[C@@H](CCC(N)=O)C(=O)N[C@H](C(N)=O)[C@@H](C)O)[C@@H](O)[C@H](O)[C@H]1O` [EU-A993] the “Mean Blood Glucose” value (db/db mice; 0 hr) was 503 mg/dL, the “Mean Blood Glucose” value (db/db mice; 10 hr) was 305 mg/dL and the “Mean Blood Glucose” value (db/db mice; 24 hr) was 324 mg/dL. The “Mean Blood Glucose” value (db/db mice; 48 hr) was 426 mg/dL and the “amount of intact compound versus time in human plasma” value [3] was “essentially no change”.

For `CC[C@H](C)[C@H](NC(=O)[C@H](CCC(=O)O)NC(=O)[C@H](CO)NC(=O)[C@@H](NC(=O)[C@@H](N)CO)C(C)C)C(=O)N[C@@H](CCC(N)=O)C(=O)N[C@@H](CC(C)C)C(=O)N[C@@H](CCSC)C(=O)N[C@@H](Cc1cnc[nH]1)C(=O)N[C@@H](CC(N)=O)C(=O)N[C@@H](CC(C)C)C(=O)NCC(=O)N[C@@H](CCCCN)C(=O)N[C@@H](Cc1cnc[nH]1)C(=O)N[C@@H](CC(C)C)C(=O)N[C@@H](CC(N)=O)C(=O)N[C@@H](CO)C(=O)N[C@@H](CCSC)C(=O)N[C@@H](CCC(=O)O)C(=O)N[C@@H](CCCN=C(N)N)C(=O)N[C@H](C(=O)N[C@@H](CCC(=O)O)C(=O)N[C@@H](Cc1c[nH]c2ccccc12)C(=O)N[C@@H](CC(C)C)C(=O)N[C@@H](CCCN=C(N)N)C(=O)N[C@@H](CCCCN)C(=O)N[C@@H](CCCCN)C(=O)N[C@@H](CC(C)C)C(=O)N[C@@H](CCC(N)=O)C(=O)N[C@@H](CC(=O)O)C(=O)N[C@H](C(=O)N[C@@H](Cc1cnc[nH]1)C(=O)N[C@@H](CC(N)=O)C(=O)N[C@@H](Cc1ccccc1)C(=O)O)C(C)C)C(C)C` [PTH], the half-life [4] is listed as 30 min.

For `CC[C@H](C)[C@H](NC(=O)[C@H](CCC(=O)O)NC(=O)[C@H](CO)NC(=O)[C@@H](NC(=O)[C@@H](N)CO)C(C)C)C(=O)N[C@@H](CCC(N)=O)C(=O)N[C@@H](CC(C)C)C(=O)N[C@@H](CCSC)C(=O)N[C@@H](Cc1cnc[nH]1)C(=O)N[C@@H](CC(N)=O)C(=O)N[C@@H](CC(C)C)C(=O)NCC(=O)N[C@@H](CCCCN)C(=O)N[C@@H](Cc1cnc[nH]1)C(=O)N[C@@H](CC(C)C)C(=O)N[C@@H](CC(N)=O)C(=O)N[C@@H](CO)C(=O)N[C@@H](CCSC)C(=O)N[C@@H](CCC(=O)O)C(=O)N[C@@H](CCCN=C(N)N)C(=O)N[C@H](C(=O)N[C@@H](CCC(=O)O)C(=O)N[C@@H](Cc1c[nH]c2ccccc12)C(=O)N[C@@H](CC(C)C)C(=O)N[C@@H](CCCN=C(N)N)C(=O)N[C@@H](CCCCN)C(=O)N[C@@H](CCCCN)C(=O)N[C@@H](CC(C)C)C(=O)N[C@@H](CCC(N)=O)C(=O)N[C@@H](CC(=O)O)C(=O)N[C@H](C(=O)N[C@@H](Cc1cnc[nH]1)C(=O)N[C@@H](CC(N)=O)C(=O)N[C@@H](Cc1ccccc1)C(=O)O)C(C)C)C(C)C` [Teriparatide], the half life [5] is listed as 19 min.

— patent US10005817B2, “Peptide pharmaceuticals” (EUMEDERIS PHARMACEUTICALS, INC., priority 2012, dated 2018)
